Measured values reported in patent US7880007B2, “Bicyclic substituted phenyl piperidine modulators of muscarinic receptors” (Vertex Pharmaceuticals Incorporated, priority 2004, dated 2011).

Legend:
Assay type in all cases: cell-based
M1 muscarinic receptor = target: T1, M1 muscarinic receptor (Homo sapiens, UniProt P11229); assay: Functional mobilization of intracellular calcium (FLIPR), M1-CHO cells; settings: for Emax: 100% efficacy = maximum response obtained with the Carbachol control; for M1 Activity: M1-CHO cells, calcium mobilization (FLIPR)
T1 construct: expressed in transfected cells; host or cells: CHO (M1-CHO)
T1 sequence (P11229 1-460): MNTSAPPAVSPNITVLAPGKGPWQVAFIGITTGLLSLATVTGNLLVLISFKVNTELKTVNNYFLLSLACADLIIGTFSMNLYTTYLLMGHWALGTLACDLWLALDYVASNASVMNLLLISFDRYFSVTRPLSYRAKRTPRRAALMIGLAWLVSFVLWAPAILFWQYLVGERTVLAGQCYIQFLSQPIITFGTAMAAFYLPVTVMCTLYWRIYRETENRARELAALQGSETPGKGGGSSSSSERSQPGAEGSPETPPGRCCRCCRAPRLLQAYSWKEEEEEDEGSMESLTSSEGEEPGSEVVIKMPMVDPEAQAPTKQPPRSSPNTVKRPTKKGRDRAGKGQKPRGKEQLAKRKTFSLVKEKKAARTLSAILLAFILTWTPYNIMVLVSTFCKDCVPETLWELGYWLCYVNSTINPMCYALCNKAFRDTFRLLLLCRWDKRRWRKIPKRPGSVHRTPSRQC
In short: (§1)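 CHO cells expressing human M1–M4 receptors loaded with Fluo-3 AM or Calcium 3 dye (1 mM probenecid, pH 7.4); 0.5% DMSO final. Agonist mode: compound added directly; antagonist mode: 15 min pre-incubation or co-application, then carbachol at EC80. Fluorescence read 60 s on FLIPR; efficacy relative to carbachol maximum.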

M2 muscarinic receptor = target: T2, M2 muscarinic receptor (Homo sapiens, UniProt P08172); assay: Functional mobilization of intracellular calcium (FLIPR), M2-CHO cells; settings: for Emax: 100% efficacy = maximum response obtained with the Carbachol control; for M2 Activity: M2-CHO cells, calcium mobilization (FLIPR)
T2 construct: expressed in transfected cells; host or cells: CHO (M2-CHO)
T2 sequence (P08172 1-466): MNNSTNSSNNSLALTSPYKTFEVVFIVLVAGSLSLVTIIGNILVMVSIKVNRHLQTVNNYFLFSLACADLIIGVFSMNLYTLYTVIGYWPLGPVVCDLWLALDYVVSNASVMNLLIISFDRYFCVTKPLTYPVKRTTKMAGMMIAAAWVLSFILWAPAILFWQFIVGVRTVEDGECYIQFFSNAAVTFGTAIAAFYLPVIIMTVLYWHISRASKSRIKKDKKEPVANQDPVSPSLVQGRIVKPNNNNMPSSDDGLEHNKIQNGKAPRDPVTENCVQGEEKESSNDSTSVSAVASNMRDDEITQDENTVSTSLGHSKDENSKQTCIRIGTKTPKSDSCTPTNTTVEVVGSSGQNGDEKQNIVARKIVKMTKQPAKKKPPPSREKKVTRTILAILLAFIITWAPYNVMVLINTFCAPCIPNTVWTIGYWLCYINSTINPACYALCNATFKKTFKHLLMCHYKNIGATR
In short: as §1

M3 muscarinic receptor = target: T3, M3 muscarinic receptor (Homo sapiens, UniProt P20309); assay: Functional mobilization of intracellular calcium (FLIPR), M3-CHO cells; settings: for Emax: 100% efficacy = maximum response obtained with the Carbachol control; for M3 Activity: M3-CHO cells, calcium mobilization (FLIPR)
T3 construct: expressed in transfected cells; host or cells: CHO (M3-CHO)
In short: as §1

M4 muscarinic receptor = target: T4, M4 muscarinic receptor (Homo sapiens, UniProt P08173); assay: Functional mobilization of intracellular calcium (FLIPR), M4-CHO cells; settings: for Emax: 100% efficacy = maximum response obtained with the Carbachol control; for M4 Activity: M4-CHO cells, calcium mobilization (FLIPR)
T4 construct: expressed in transfected cells; host or cells: CHO (M4-CHO)
T4 sequence (P08173 1-479): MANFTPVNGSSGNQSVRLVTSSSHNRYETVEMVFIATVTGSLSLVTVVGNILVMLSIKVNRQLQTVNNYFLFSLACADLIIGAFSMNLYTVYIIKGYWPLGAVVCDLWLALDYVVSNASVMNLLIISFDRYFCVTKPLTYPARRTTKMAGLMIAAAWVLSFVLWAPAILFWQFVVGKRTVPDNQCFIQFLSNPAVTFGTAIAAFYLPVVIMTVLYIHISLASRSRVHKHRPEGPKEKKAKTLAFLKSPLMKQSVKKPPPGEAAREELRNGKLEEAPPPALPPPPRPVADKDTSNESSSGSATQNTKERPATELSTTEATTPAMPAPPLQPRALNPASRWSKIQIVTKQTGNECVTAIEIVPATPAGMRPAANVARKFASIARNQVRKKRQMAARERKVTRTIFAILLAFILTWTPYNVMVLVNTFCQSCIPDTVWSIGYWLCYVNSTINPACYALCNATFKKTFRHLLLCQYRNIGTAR
In short: as §1

T3 sequence (P20309 whole entry): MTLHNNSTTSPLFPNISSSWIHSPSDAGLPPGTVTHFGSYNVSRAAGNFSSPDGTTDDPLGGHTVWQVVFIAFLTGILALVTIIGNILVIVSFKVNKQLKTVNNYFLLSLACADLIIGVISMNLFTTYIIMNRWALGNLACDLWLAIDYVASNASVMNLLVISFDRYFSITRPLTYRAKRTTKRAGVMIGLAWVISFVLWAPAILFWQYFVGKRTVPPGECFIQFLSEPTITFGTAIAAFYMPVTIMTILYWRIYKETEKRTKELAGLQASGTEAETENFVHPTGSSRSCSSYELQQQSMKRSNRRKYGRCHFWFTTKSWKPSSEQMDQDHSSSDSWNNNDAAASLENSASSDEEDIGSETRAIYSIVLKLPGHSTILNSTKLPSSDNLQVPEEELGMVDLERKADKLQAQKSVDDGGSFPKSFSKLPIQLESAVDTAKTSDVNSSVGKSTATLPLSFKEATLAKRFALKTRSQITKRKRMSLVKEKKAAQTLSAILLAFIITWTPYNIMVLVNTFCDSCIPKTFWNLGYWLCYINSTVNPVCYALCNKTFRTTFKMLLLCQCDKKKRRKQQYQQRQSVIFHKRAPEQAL

SMILES	Emax (M1 muscarinic receptor) [%]	M1 Activity (M1 muscarinic receptor)	Emax (M2 muscarinic receptor) [%]	M2 Activity (M2 muscarinic receptor)	Emax (M3 muscarinic receptor) [%]	M3 Activity (M3 muscarinic receptor)	Emax (M4 muscarinic receptor) [%]	M4 Activity (M4 muscarinic receptor)
CCOC(=O)N1C2CCC1CC(N1CCC(c3ccc(F)cc3OC)CC1)C2 (stereo not drawn) [Compound 179]	25 to 100	+++ (activity was measured to be less than 1.0 μM)	< 25	+ (activity was measured to be greater than 5.0 μM)	< 25	+ (activity was measured to be greater than 5.0 μM)	25 to 100	+++ (activity was measured to be less than 1.0 μM)
Cc1ccccc1C1CCN(C2CC3CCC2C3)CC1 (stereo not drawn) [Compound 180]	25 to 100	++ (activity was measured to be from 1.0 μM to 5.0 μM)	< 25	+ (activity was measured to be greater than 5.0 μM)	< 25	+ (activity was measured to be greater than 5.0 μM)	25 to 100	+++ (activity was measured to be less than 1.0 μM)
COc1ccc(Cl)cc1C1CCN(C2CCCCCC2)CC1 [Compound 181]	25 to 100	++ (activity was measured to be from 1.0 μM to 5.0 μM)	25 to 100	++ (activity was measured to be from 1.0 μM to 5.0 μM)	< 25	+ (activity was measured to be greater than 5.0 μM)	25 to 100	+++ (activity was measured to be less than 1.0 μM)
FC(F)(F)Oc1ccccc1C1CCN([C@H]2C[C@H]3CC[C@H]2C3)CC1 [Compound 183]	25 to 100	+ (activity was measured to be greater than 5.0 μM)	< 25	+ (activity was measured to be greater than 5.0 μM)	< 25	+ (activity was measured to be greater than 5.0 μM)	25 to 100	+++ (activity was measured to be less than 1.0 μM)
COc1ccc(-c2ccc(C(=O)NCCCO)cc2)cc1C1CCN(C2CCOCC2)CC1 [Compound 184]	< 25	+ (activity was measured to be greater than 5.0 μM)	< 25	+ (activity was measured to be greater than 5.0 μM)	< 25	+ (activity was measured to be greater than 5.0 μM)	< 25	+ (activity was measured to be greater than 5.0 μM)
COc1ccc(C)cc1C1CCN([C@H]2CC[C@H]3CC[C@H]2C3)CC1 [Compound 185]	25 to 100	++ (activity was measured to be from 1.0 μM to 5.0 μM)	25 to 100	+ (activity was measured to be greater than 5.0 μM)	< 25	+ (activity was measured to be greater than 5.0 μM)	25 to 100	+++ (activity was measured to be less than 1.0 μM)
COc1ccc(Br)cc1C1CCN([C@@H]2C[C@@H]3CC[C@H]2C3)CC1 [Compound 187, 1-((1S,2R,4R)-bicyclo[2.2.1]heptan-2-yl)-4-(5-bromo-2-methoxyphenyl)piperidine]	25 to 100	+++ (activity was measured to be less than 1.0 μM)	25 to 100	++ (activity was measured to be from 1.0 μM to 5.0 μM)	< 25	+ (activity was measured to be greater than 5.0 μM)	25 to 100	+++ (activity was measured to be less than 1.0 μM)
Cc1ccc(C(=O)COc2ccccc2C2CCN([C@H]3C[C@H]4CC[C@H]3C4)CC2)cc1 [Compound 188]	25 to 100	+ (activity was measured to be greater than 5.0 μM)	25 to 100	+ (activity was measured to be greater than 5.0 μM)	< 25	+ (activity was measured to be greater than 5.0 μM)	25 to 100	++ (activity was measured to be from 1.0 μM to 5.0 μM)
CCOC(=O)N1CCC(CN2CCC(O)(c3cc(F)ccc3OC)CC2)CC1 [Compound 189]	25 to 100	+++ (activity was measured to be less than 1.0 μM)	< 25	+ (activity was measured to be greater than 5.0 μM)	< 25	+ (activity was measured to be greater than 5.0 μM)	25 to 100	+++ (activity was measured to be less than 1.0 μM)
COc1ccc(-c2ccc(CC#N)cc2)cc1C1CCN(C2C[C@H]3CC[C@H]2C3)CC1 (stereo partly drawn) [Compound 190]	< 25	+ (activity was measured to be greater than 5.0 μM)	< 25	+ (activity was measured to be greater than 5.0 μM)	< 25	+ (activity was measured to be greater than 5.0 μM)	25 to 100	+ (activity was measured to be greater than 5.0 μM)
COc1ccc(-c2ccc(C(C)(C)C#N)cc2)cc1C1CCN(C2CCOCC2)CC1 [Compound 192]	25 to 100	+ (activity was measured to be greater than 5.0 μM)	< 25	+ (activity was measured to be greater than 5.0 μM)	< 25	+ (activity was measured to be greater than 5.0 μM)	25 to 100	+ (activity was measured to be greater than 5.0 μM)
COc1ccc(F)cc1C1CCN(C2CCOCC2)CC1 [Compound 193]	25 to 100	++ (activity was measured to be from 1.0 μM to 5.0 μM)	25 to 100	+ (activity was measured to be greater than 5.0 μM)	< 25	+ (activity was measured to be greater than 5.0 μM)	25 to 100	+++ (activity was measured to be less than 1.0 μM)
c1ccc(C2CCN([C@H]3C[C@H]4CC[C@H]3C4)CC2)c(-c2ccc3c(c2)OCO3)c1 [Compound 195]	25 to 100	+ (activity was measured to be greater than 5.0 μM)	< 25	+ (activity was measured to be greater than 5.0 μM)	< 25	+ (activity was measured to be greater than 5.0 μM)	25 to 100	+++ (activity was measured to be less than 1.0 μM)
CNC(=O)c1ccc(-c2ccc(OC)c(C3CCN(C4CC5CCC(C5)C4)CC3)c2)cc1 (stereo not drawn) [Compound 196]	< 25	+ (activity was measured to be greater than 5.0 μM)	< 25	+ (activity was measured to be greater than 5.0 μM)	< 25	+ (activity was measured to be greater than 5.0 μM)	25 to 100	+++ (activity was measured to be less than 1.0 μM)
COc1ccccc1C1(O)CCN([C@H]2C[C@H]3CC[C@H]2C3)CC1O (stereo partly drawn) [Compound 197]	< 25	+ (activity was measured to be greater than 5.0 μM)	< 25	+ (activity was measured to be greater than 5.0 μM)	< 25	+ (activity was measured to be greater than 5.0 μM)	25 to 100	+ (activity was measured to be greater than 5.0 μM)
